What all share (type): biochemical
One test has as its target T1, CDK2/CycA (Homo sapiens, UniProt P24941).
T1 construct: purchased Proqinase
The test is described as follows: CDK2 Enzymatic Activity Assay (Lance Kinase Activity Assay, FRET). The following applies: Table 5B; symbols per IC50 ranges of b615. The method, then: This protocol describes how the Lance Kinase Activity Assay was performed to determine IC50 values of compounds of general formula (I) against CDK/Cyclin complexes. The principle behind this enzymatic assay is based upon the phosphorylation of the Ulight-Peptide Substrat. It is detected by using a specific EU-labeled anti-phospho peptide antibody.
Binding of an inhibitor to the kinase prevents phosphorylation of the ULlight-MBP Substrat, resulting in a loss of FRET.
CDK2 Enzymatic Activity Assay
The compounds of general formula (I) exemplary summarized in Table 1 were diluted from a 10 mM DMSO stock solution 1:10 in a total volume of 15 μl DMSO. This compound predilution was then serial diluted 1:3 over 8 steps in DMSO and briefly spun down. Each compound solution was now diluted 1:20 in Enzymatic Buffer (HEPES: 50 mM, pH: 7.5; MgCl2: 10 mM; EGTA: 1 mM; DTT: 2 mM; Tween-20: 0.01%), mixed thoroughly and spun down.
For positive controls, 2 μl of DMSO working solution were mixed with 6 μl CDK2/CycA/substrate working solution and 2 μl ATP working solution. Positive and negative controls were calculated from at least 8 different wells. The 384 well plates were mixed in a Teleshaker plate mixer (Beckman Coulter, Brea, Calif., USA) at 2000 rpm for 40 sec, and incubated for 1 h at room temperature before addition of 10 μl LANCE Detection Buffer (EDTA: […]; Eu-Anti-P-MBP: 4 nM) per well. Plates were mixed in a Teleshaker plate mixer (Beckman Coulter, Brea, Calif., USA) at 2000 rpm for […], followed by incubation with Detection Buffer for 1 h, and reading. […] IC50 values were determined from the sigmoidal dose response curves with the software Quattro Workflow (Quattro GmbH, Munich, Germany).

The next test concerns the target T2, CDK7/CycH/Mat1 (Homo sapiens, UniProt P50613).
T2 construct: purchased Carna
The test is described as follows: CDK7 Enzymatic Activity Assay (Lance Kinase Activity Assay, FRET). The following applies: Table 5A; 25 μM ATP final; read-out: CDK7: IC50 [mM] for CDK7 inhibition (the above defined ranges apply). The method in brief: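 TR-FRET (LANCE) kinase assay with ULight-MBP peptide substrate and Eu-labelled anti-phospho antibody; compounds in 8-point 1:3 series in HEPES 50 mM pH 7.5, MgCl2 10 mM, EGTA 1 mM, DTT 2 mM, 0.01% Tween-20.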

For a further test, the target named is T3, CDK9/Cyclin T1 (Homo sapiens, UniProt P50750).
T3 construct: purchased Invitrogen
Briefly: CDK9 Enzymatic Activity Assay (Lance Kinase Activity Assay, FRET). The following applies: Table 5B; symbols per IC50 ranges of b615. The method in brief:
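TR-FRET detection of ULight-MBP substrate phosphorylation by CDK9/cyclin T1 using a Eu-anti-phospho-MBP antibody, in 50 mM HEPES pH 7.5, 10 mM MgCl2, 1 mM EGTA, 2 mM DTT, 0.01% Tween-20. Kinase reaction 1 h at room temperature, then EDTA detection buffer for 1 h before reading.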

Where only a bound is given, the exact number is not on record here.

T3 sequence (P50750 whole entry): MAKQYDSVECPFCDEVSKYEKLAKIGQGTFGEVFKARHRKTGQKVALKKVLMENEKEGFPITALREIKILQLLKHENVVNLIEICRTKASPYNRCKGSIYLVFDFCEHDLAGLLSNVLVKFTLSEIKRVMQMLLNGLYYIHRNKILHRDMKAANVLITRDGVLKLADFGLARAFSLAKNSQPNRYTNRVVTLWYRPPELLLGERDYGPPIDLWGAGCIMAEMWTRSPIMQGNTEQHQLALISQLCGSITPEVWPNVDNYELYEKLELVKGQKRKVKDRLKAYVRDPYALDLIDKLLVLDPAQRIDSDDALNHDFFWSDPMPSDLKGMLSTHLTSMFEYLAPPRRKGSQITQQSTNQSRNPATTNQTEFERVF
T3 sequence (O60563 whole entry partner): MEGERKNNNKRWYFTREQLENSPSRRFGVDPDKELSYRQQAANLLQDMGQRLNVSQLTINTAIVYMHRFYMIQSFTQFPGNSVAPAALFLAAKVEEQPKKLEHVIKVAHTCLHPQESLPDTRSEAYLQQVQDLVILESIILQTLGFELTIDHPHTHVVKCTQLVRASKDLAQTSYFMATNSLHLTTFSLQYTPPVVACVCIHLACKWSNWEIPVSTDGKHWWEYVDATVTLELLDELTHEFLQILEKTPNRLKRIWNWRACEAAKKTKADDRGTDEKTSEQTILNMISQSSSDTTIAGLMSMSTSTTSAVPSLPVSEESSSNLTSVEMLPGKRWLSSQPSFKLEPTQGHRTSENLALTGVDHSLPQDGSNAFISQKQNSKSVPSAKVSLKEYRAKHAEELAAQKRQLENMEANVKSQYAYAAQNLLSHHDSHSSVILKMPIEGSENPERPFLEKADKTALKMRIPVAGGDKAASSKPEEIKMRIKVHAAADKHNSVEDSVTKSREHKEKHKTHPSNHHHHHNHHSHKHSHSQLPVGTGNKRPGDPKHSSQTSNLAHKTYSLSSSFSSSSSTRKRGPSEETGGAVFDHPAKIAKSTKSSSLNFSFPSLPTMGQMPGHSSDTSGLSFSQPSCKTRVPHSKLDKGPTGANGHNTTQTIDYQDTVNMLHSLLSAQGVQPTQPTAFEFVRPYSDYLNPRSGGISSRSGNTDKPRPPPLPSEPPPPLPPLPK
T2 sequence (P50613 whole entry): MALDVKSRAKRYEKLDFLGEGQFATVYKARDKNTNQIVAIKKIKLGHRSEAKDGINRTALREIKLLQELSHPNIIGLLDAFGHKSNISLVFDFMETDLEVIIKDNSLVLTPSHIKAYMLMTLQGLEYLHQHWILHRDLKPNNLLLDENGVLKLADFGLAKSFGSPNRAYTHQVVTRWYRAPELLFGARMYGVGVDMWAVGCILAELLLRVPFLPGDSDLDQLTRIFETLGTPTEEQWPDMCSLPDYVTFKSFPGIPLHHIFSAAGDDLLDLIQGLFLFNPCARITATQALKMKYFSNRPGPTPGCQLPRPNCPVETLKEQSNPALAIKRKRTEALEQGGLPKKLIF
T2 sequence (P51946 whole entry partner): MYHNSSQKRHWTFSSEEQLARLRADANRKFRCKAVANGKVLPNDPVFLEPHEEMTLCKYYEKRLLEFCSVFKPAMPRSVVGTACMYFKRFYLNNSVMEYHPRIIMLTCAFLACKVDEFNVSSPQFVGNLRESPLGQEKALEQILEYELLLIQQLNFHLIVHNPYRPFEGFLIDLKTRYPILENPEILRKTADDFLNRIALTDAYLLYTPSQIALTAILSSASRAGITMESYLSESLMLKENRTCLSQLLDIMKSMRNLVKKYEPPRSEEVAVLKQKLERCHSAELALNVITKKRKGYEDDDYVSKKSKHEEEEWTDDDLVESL
T2 sequence (P51948 whole entry partner): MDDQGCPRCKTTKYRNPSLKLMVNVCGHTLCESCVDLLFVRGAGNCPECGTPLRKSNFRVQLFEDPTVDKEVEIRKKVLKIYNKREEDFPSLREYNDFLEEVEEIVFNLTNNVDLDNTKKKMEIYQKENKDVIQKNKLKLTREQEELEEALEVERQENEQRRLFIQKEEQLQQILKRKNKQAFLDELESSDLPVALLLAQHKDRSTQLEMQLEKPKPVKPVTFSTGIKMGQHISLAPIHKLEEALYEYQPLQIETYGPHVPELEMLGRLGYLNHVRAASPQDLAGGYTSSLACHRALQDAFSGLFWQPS

A word on the IC50: it is the midpoint of a concentration-inhibition curve. With `COc1cc(F)ccc1[C@H](C)Nc1nc(O[C@@H]2CCCNC2)nc2c(C(C)C)cnn12` [(VII-az), N-((S)-1-(4-fluoro-2-methoxyphenyl)ethyl)-8-isopropyl-2-((R)-piperidin-3-yloxy)pyrazolo[1,5-a][1,3,5]triazin-4-amine], the “CDK2 IC50 range class” value at CDK2/CycA is on record as “+++ (IC50>2500 nM)”. The IC50 on CDK7/CycH/Mat1 fell in the range of 30 to 100 nM. Besides, on CDK9/Cyclin T1, the “CDK9: Selectivity of CDK7 inhibition over CDK9 inhibition [fold]” value is “+++ (IC50>2500 nM)”.
As to `CC(C)c1cnn2c(N[C@@H](C)c3ccccc3O)nc(O[C@@H]3CCCNC3)nc12` [(VII-ba), 2-((S)-1-((8-isopropyl-2-((R)-piperidin-3-yloxy)pyrazolo[1,5-a][1,3,5]triazin-4-yl)amino)ethyl)phenol], on CDK2/CycA, the “CDK2 IC50 range class” value is on record as “+++ (IC50>2500 nM)”. Also, on CDK7/CycH/Mat1, the IC50 was less than 10 nM. Also, the “CDK9: Selectivity of CDK7 inhibition over CDK9 inhibition [fold]” value on CDK9/Cyclin T1 is “+++ (IC50>2500 nM)”.
In the case of `CC(C)COc1cccc([C@H](C)Nc2nc(O[C@@H]3CCCNC3)nc3c(C(C)C)cnn23)c1` [(VII-bb), N-((S)-1-(3-isobutoxyphenyl)ethyl)-8-isopropyl-2-((R)-piperidin-3-yloxy)pyrazolo[1,5-a][1,3,5]triazin-4-amine], the “CDK2 IC50 range class” value at CDK2/CycA was “+++ (IC50>2500 nM)”. In addition, the IC50 on CDK7/CycH/Mat1 was in the range of 30 to 100 nM. The “CDK9: Selectivity of CDK7 inhibition over CDK9 inhibition [fold]” value at CDK9/Cyclin T1 is “+++ (IC50>2500 nM)”.
On to `CC(C)Oc1cccc([C@H](C)Nc2nc(O[C@@H]3CCCNC3)nc3c(C(C)C)cnn23)c1` [(VII-bc), N-((S)-1-(3-isopropoxy-phenyl)ethyl)-8-isopropyl-2-((R)-piperidin-3-yloxy)pyrazolo[1,5-a][1,3,5]triazin-4-amine], for which the “CDK2 IC50 range class” value on CDK2/CycA is on record as “+++ (IC50>2500 nM)”. Further, the IC50 on CDK7/CycH/Mat1 lay within 10 to 30 nM. Besides, the “CDK9: Selectivity of CDK7 inhibition over CDK9 inhibition [fold]” value on CDK9/Cyclin T1 is listed as “+++ (IC50>2500 nM)”.
`COc1ccc(OC)c([C@H](C)Nc2nc(O[C@@H]3CCCNC3)nc3c(C(C)C)cnn23)c1` [(VII-bd), N-((S)-1-(2,5-dimethoxy-phenyl)ethyl)-8-isopropyl-2-((R)-piperidin-3-yloxy)pyrazolo[1,5-a][1,3,5]triazin-4-amine]: the “CDK2 IC50 range class” value at CDK2/CycA was “+++ (IC50>2500 nM)”. Also, the IC50 on CDK7/CycH/Mat1 is more than 100 nM. The “CDK9: Selectivity of CDK7 inhibition over CDK9 inhibition [fold]” value at CDK9/Cyclin T1 was “+++ (IC50>2500 nM)”.
Turning to `CC(C)c1cnn2c(N[C@@H](C)c3ccccc3Br)nc(O[C@@H]3CCCNC3)nc12` [(VII-be), N-((S)-1-(2-bromophenyl)ethyl)-8-isopropyl-2-((R)-piperidin-3-yloxy)pyrazolo[1,5-a][1,3,5]triazin-4-amine], at CDK2/CycA, the “CDK2 IC50 range class” value is “+++ (IC50>2500 nM)”. At CDK7/CycH/Mat1, the IC50 is less than 10 nM. For the same compound, the “CDK9: Selectivity of CDK7 inhibition over CDK9 inhibition [fold]” value at CDK9/Cyclin T1 is “+++ (IC50>2500 nM)”.
For `COc1cc(OC)cc(C(C)Nc2nc(O[C@@H]3CCCNC3)nc3c(C(C)C)cnn23)c1` (stereo partly drawn) [(VII-bg), N-(1-(3,5-dimethoxy-phenyl)ethyl)-8-isopropyl-2-((R)-piperidin-3-yloxy)pyrazolo[1,5-a][1,3,5]triazin-4-amine], the “CDK2 IC50 range class” value at CDK2/CycA is given as “+++ (IC50>2500 nM)”. For the same compound, the IC50 on CDK7/CycH/Mat1 was more than 100 nM. Besides, the “CDK9: Selectivity of CDK7 inhibition over CDK9 inhibition [fold]” value at CDK9/Cyclin T1 is “+++ (IC50>2500 nM)”.
Turning to `CC(C)c1cnn2c(NC(C)c3cccc4c3cnn4C)nc(O[C@@H]3CCCNC3)nc12` (stereo partly drawn) [(VII-bh), 8-isopropyl-N-(1-(1-methyl-1H-indazol-4-yl)ethyl)-2-((R)-piperidin-3-yloxy)pyrazolo[1,5-a][1,3,5]triazin-4-amine], at CDK2/CycA, the “CDK2 IC50 range class” value is on record as “+++ (IC50>2500 nM)”. Further, the IC50 on CDK7/CycH/Mat1 was less than 10 nM. Further, the “CDK9: Selectivity of CDK7 inhibition over CDK9 inhibition [fold]” value at CDK9/Cyclin T1 is recorded as “+++ (IC50>2500 nM)”.
Consider `COc1cccc([C@H](C)Nc2nc(OCCN3CCNCC3)nc3c(C(C)C)cnn23)c1` [(VII-bn), (S)-8-isopropyl-N-(1-(3-methoxyphenyl)ethyl)-2-(2-(piperazin-1-yl)ethoxy)pyrazolo[1,5-a][1,3,5]triazin-4-amine], for which, on CDK2/CycA, the “CDK2 IC50 range class” value is recorded as “+++ (IC50>2500 nM)”. Moreover, the IC50 at CDK7/CycH/Mat1 was more than 100 nM. At CDK9/Cyclin T1, the “CDK9: Selectivity of CDK7 inhibition over CDK9 inhibition [fold]” value was “+++ (IC50>2500 nM)”.
In the case of `COc1cccc([C@H](C)Nc2nc(OC3CNC3)nc3c(C(C)C)cnn23)c1` [(VII-bv), (S)-2-(azetidin-S-yloxy)-8-isopropyl-N-(1-(3-methoxyphenyl)ethyl)pyrazolo[1,5-a][1,3,5]triazin-4-amine], the “CDK2 IC50 range class” value at CDK2/CycA was “+++ (IC50>2500 nM)”. In addition, the half-maximal inhibitory concentration (IC50) on CDK7/CycH/Mat1 is less than 10 nM. For the same compound, at CDK9/Cyclin T1, the “CDK9: Selectivity of CDK7 inhibition over CDK9 inhibition [fold]” value was “+++ (IC50>2500 nM)”.
Regarding `COc1cccc([C@H](C)Nc2nc(OCCN(C)S(=O)(=O)C3CCNCC3)nc3c(C(C)C)cnn23)c1` [(VII-bw), (S)-N-(2-((8-isopropyl-4-((1-(3-methoxyphenyl)ethyl)amino)pyrazolo[1,5-a][1,3,5]triazin-2-yl)oxy)ethyl)-N-methylpiperidine-4-sulfonamide], on CDK2/CycA, the “CDK2 IC50 range class” value is given as “+++ (IC50>2500 nM)”. In addition, on CDK7/CycH/Mat1, the IC50 was less than 10 nM. The “CDK9: Selectivity of CDK7 inhibition over CDK9 inhibition [fold]” value on CDK9/Cyclin T1 was “+++ (IC50>2500 nM)”.
`COc1cccc([C@H](C)Nc2nc(OC3COC4(CCNCC4)C3)nc3c(C(C)C)cnn23)c1` (stereo partly drawn) [(VII-bx), 2-(1-oxa-8-azaspiro[4.5]decan-3-yloxy)-8-isopropyl-N-((S)-1-(3-methoxyphenyl)ethyl)pyrazolo[1,5-a][1,3,5]triazin-4-amine]: the “CDK2 IC50 range class” value at CDK2/CycA was “+++ (IC50>2500 nM)”. The IC50 at CDK7/CycH/Mat1 was less than 10 nM. The “CDK9: Selectivity of CDK7 inhibition over CDK9 inhibition [fold]” value on CDK9/Cyclin T1 is reported as “+++ (IC50>2500 nM)”.
As for `CC(C)c1cnn2c(NC(C)c3ccccc3N3CCC3)nc(O[C@@H]3CCCNC3)nc12` (stereo partly drawn) [(VII-by), N-(1-(2-(azetidin-1-yl)phenyl)ethyl)-8-isopropyl-2-((R)-piperidin-3-yloxy)pyrazolo[1,5-a][1,3,5]triazin-4-amine], the “CDK2 IC50 range class” value at CDK2/CycA is “+++ (IC50>2500 nM)”. Moreover, on CDK7/CycH/Mat1, the IC50 is less than 10 nM. Moreover, the “CDK9: Selectivity of CDK7 inhibition over CDK9 inhibition [fold]” value at CDK9/Cyclin T1 is on record as “+++ (IC50>2500 nM)”.
Turning to `CC(C)c1cnn2c(NC(C)c3ccccc3S(=O)(=O)N3CCCC3)nc(O[C@@H]3CCCNC3)nc12` (stereo partly drawn) [(VII-bz), 8-isopropyl-2-((R)-piperidin-3-yloxy)-N-(1-(2-(pyrrolidin-1-ylsulfonyl)phenyl)ethyl)pyrazolo[1,5-a][1,3,5]triazin-4-amine], at CDK2/CycA, the “CDK2 IC50 range class” value is recorded as “+++ (IC50>2500 nM)”. For the same compound, the IC50 on CDK7/CycH/Mat1 was less than 10 nM. Also, the “CDK9: Selectivity of CDK7 inhibition over CDK9 inhibition [fold]” value on CDK9/Cyclin T1 was “+++ (IC50>2500 nM)”.
Regarding `CC(C)c1cnn2c(NC(C)c3ccc4[nH]ncc4c3)nc(O[C@@H]3CCCNC3)nc12` (stereo partly drawn) [(VII-ca), N-(1-(1H-indazol-5-yl)ethyl)-8-isopropyl-2-((R)-piperidin-3-yloxy)pyrazolo[1,5-a][1,3,5]triazin-4-amine], on CDK2/CycA, the “CDK2 IC50 range class” value is recorded as “+++ (IC50>2500 nM)”. In addition, the IC50 on CDK7/CycH/Mat1 was less than 10 nM. The “CDK9: Selectivity of CDK7 inhibition over CDK9 inhibition [fold]” value on CDK9/Cyclin T1 is listed as “+++ (IC50>2500 nM)”.
With `CC(C)c1cnn2c(NC(C)c3cccc4cn[nH]c34)nc(O[C@@H]3CCCNC3)nc12` (stereo partly drawn) [(VII-cb), N-(1-(1H-indazol-7-yl)ethyl)-8-isopropyl-2-((R)-piperidin-3-yloxy)pyrazolo[1,5-a][1,3,5]triazin-4-amine], on CDK2/CycA, the “CDK2 IC50 range class” value is given as “+++ (IC50>2500 nM)”. Also, the IC50 at CDK7/CycH/Mat1 was less than 10 nM. For the same compound, on CDK9/Cyclin T1, the “CDK9: Selectivity of CDK7 inhibition over CDK9 inhibition [fold]” value is “+++ (IC50>2500 nM)”.
Turning to `CC(C)c1cnn2c(NC(C)c3cccc4ncccc34)nc(OC3CC4(CC(N)C4)C3)nc12` (stereo not drawn) [(VII-cc), 2-((6-aminospiro[3.3]heptan-2-yl)oxy)-8-isopropyl-N-(1-(quinolin-5-yl)ethyl)pyrazolo[1,5-a][1,3,5]triazin-4-amine], the “CDK2 IC50 range class” value on CDK2/CycA is recorded as “+++ (IC50>2500 nM)”. The IC50 at CDK7/CycH/Mat1 lay within 10 to 30 nM. The “CDK9: Selectivity of CDK7 inhibition over CDK9 inhibition [fold]” value at CDK9/Cyclin T1 is on record as “+++ (IC50>2500 nM)”.

For the origin of these results see patent US9096608B2, “Pharmaceutically active pyrazolo-triazine derivatives” (LEAD DISCOVERY CENTER GMBH, priority 2012, dated 2015).
